Results: patent US20110171230A1, “Method of Identifying Agents that Promote Axonal Development” (The Johns Hopkins University, priority 2008, published 2011)

Tests used:
[1] = test system: TRPC1 binding to GST-Homer; assay: GST-Homer pull-down of TRPC1 from lysates of treated HEK293 cells; type: cell-based, human; conditions: HEK293 cells transfected with HA-TRPC1 and FKBP52, GPI-1046 1 nM, 100 nM, 500 nM, 1 μM for 30 min
Description: GST pull-down, Co-IP and immunocytochemistry. Protein binding assays were done as previously described (Yuan et al., Cell 114:777-89, 2003). Transfected cells were harvested and lysed using 500 μl of binding buffer (1×PBS buffer containing 1 mM NaVO3, 10 mM NaPyrophosphate, 50 mM NaF [pH 7.4], and 1% Triton X-100). The cell extracts were sonicated, and insoluble material was spun down at 30,000 g for 20 min. For GST pull-down, GST-H3 EVH was expressed in BL21 bacterial cells by growing a 400 ml culture at 37 C until […] was 0.4-0.6. Cells were induced with […] IPTG for an additional hour, harvested, lysed in […] of 1% Triton X-100 in 1×PBS+[…] PMSF, sonicated 3×10 strokes, and spun down at 12,000 g for 5 min. The supernatant was mixed 1:1 with a slurry of GST-agarose beads (Sigma) for 30 min at 4 C. Beads were washed 2 times with 1% Triton X-100 in 1×PBS and 2 times with 1×PBS. 50 μl of 1:1 slurry of GST-H3 EVH beads were used per 100 μl cell extract and rocked for 2 hr at 4° C. For co-IP experiments, 1 μg of purified antibody or 2 μl of crude antiserum was added to 100 μl of cell extract and incubated for 1 hr at 4° C. Then, 1:1 slurry of protein A or G SEPHAROSE 4B beads were added to the antibody-extract mix and incubated for an additional hour at 4° C. […]

[2] = test system: growth cones of Xenopus spinal neurons; assay: Growth cone turning assay in a netrin-1 gradient; type: cell-based; conditions: for growth cone turning response in a GPI-1046 gradient: GPI-1046 100 μM in the pipette
Description: Growth cone turning assay. Microscopic gradients of netrin-1 (5 μg/ml in the pipette), MAG (150 μg/ml in the pipette) and GPI-1046 (100 μM in the pipette) were produced as previously described (Lohof et al., J Neurosci 12:1253-61, 1992; and Zheng et al., Nature 368:140-4, 1994). […] Xenopus spinal neurons were used 14 to 20 hrs after plating and neurons with the lineage-tracer were identified under fluorescent microscope and used for turning assay at room temperature as previously described (Ming et al., Nature 417:411-8, 2002; Ming et al., Neuron 19:1225-35, 1997; Lohof et al., J Neurosci 12:1253-61, 1992; and Zheng et al., Nature 368:140-4, 1994). GFP^+ hippocampal neurons were used 48-72 hours after plating and individual axon was identified for turning assay at the room temperature. The turning angle was defined by the angle between the original direction of neurite extension and a straight line connecting the positions of the center of the growth cone at the onset and the end of the 30 min period. The rates of neurite extension were calculated based on the net neurite extension during the turning assay. Only those growth cones of isolated neurons with a net neurite extension >5 μm over the 30-min period were included for analysis. Statistical significance was assessed using the Kolmogorov-Smirnov test.

[3] = test system: axonal growth cones of rat hippocampal neurons; assay: Growth cone turning assay in a MAG gradient; type: cell-based; conditions: MAG 150 μg/ml in the pipette
Description: Primary hippocampal neuronal cultures and transfection. Hippocampal neurons were isolated from postnatal rats (P3-P5) and were cultured on poly-L-lysine coated coverslips as previously described (Song et al., Nature 417:39-44, 2002). These neurons were transfected with the AMAXA transfection system following protocols from the manufacturer. Briefly, hippocampal neurons were isolated and 100 μl of nucleofector solution was added to resuspend the cell pellet. Different expression constructs (1-5 μg), GFP, FKBP52-FD67DV, TRPC1-P645A or a combination of TRPC1-P645A and FKBP52-WT, were added to the cell suspension and then transferred to cuvettes for electroporation. The cells were cultured in DMEM with 10% fetal bovine serum for 24 hrs before changing to serum-free neurobasal medium (Song et al., Nature 417:39-44, 2002). Growth cone turning assay. Microscopic gradients of netrin-1 (5 μg/ml in the pipette), MAG (150 μg/ml in the pipette) and GPI-1046 (100 μM in the pipette) were produced as previously described (Lohof et al., J Neurosci 12:1253-61, 1992; and Zheng et al., Nature 368:140-4, 1994). […] The rates of neurite extension were calculated based on the net neurite extension during the turning assay. […] Statistical significance was assessed using the Kolmogorov-Smirnov test.

[4] = test system: growth cones of Xenopus spinal neurons; assay: Ca2+ imaging of growth cones of cultured spinal neurons (netrin-1-induced Ca2+ rise); type: cell-based
Description: Ca^2+ imaging of cultured spinal neurons. Ca^2+ imaging of growth cones of Xenopus spinal neurons was carried out as previously described (Ming et al., Nature 417:411-8, 2002; and Ming et al., Neuron 19:1225-35, 1997). Specifically, isolated Xenopus spinal neurons were loaded with Fluo-4 AM (2 μM, Molecular Probes) in the culture media without serum for 30 min at room temperature, and rinsed with the media for growth cone turning assay. Ca^2+ imaging was performed using a Zeiss 510 META system equipped with a 20× objective (NA 0.8). Excitation was at 488 nm by argon laser and the emitted fluorescence was collected at […]. Fluorescence and bright-field images were simultaneously acquired at every 30 seconds with a frame scan. The fluorescence intensity of each time point was measured over a fixed rectangular region of interest that covers the entire growth cone and normalized to the average fluorescence intensity that was measured during a 5 min baseline period (prior to netrin-1 application).

[5] = test system: FKBPs; conditions: Steiner et al., PNAS 94:2019-24, 1997; cited from earlier work
[6] = test system: commissural interneuron axons in developing Xenopus embryos; assay: Commissural interneuron axon midline guidance in developing spinal cord (3A10 immunostaining); type: in vivo
Description: Xenopus embryo injection and cell culture. Blastomere injections of morpholino oligos or mRNAs encoding TRPC1, FKBP52 or their mutant forms into early stages of Xenopus embryos and culturing of spinal neurons from these injected embryos were performed as previously described (Shim et al., Nat Neurosci 8:730-5, 2005). Specifically, fertilized embryos were injected at the one- or two-cell stage, with a mixture of the morpholino (10 ng/embryo) or mRNA (2-3 ng/embryo), and a lineage tracer. The following DNA constructs were subcloned into the pCS2 vector and used for in vitro transcription with the mMESSAGE mMACHINE SP6 kit (Ambion): Myc-FKBP52-WT, Myc-FKBP52-FD67DV, HA-TRPC1-WT, HA-TRPC1-P645L, HA-TRPC1-P645A, GFP-XTRP C1. A morpholino oligo directed against Xenopus DCC (XDCC-MO) was designed with the following sequence: 5′ […] 3′. Injected embryos at stage 22 were used for cultures of spinal neurons as previous described (Shim et al., Nat Neurosci 8:730-5, 2005).
Whole-mount immunocytochemistry and confocal imaging. Embryos at stage 23-28 were fixed and processed for immunocytochemistry as previously described (Shim et al., Nat Neurosci 8:730-5, 2005; and Gomez et al., Nature 397:350-5, 1999). […] Statistical significance was assessed using the Bootstrap test and accepted if p <0.01.

[7] = test system: calcineurin; conditions: Steiner et al., PNAS 94:2019-24, 1997; cited from earlier work

Compound | TRPC1 binding to GST-Homer [1] | growth cone turning response in a GPI-1046 gradient ([2]; uniform netrin-1 10 ng/ml in the bath) | growth cone turning response in a GPI-1046 gradient ([2]; without uniform netrin-1 stimulation) | growth cone turning response in a netrin-1 gradient ([2]; netrin-1 5 μg/ml in the pipette, bath application of 100 nM, 30 min) | MAG-induced growth cone repulsion [3] | netrin-1-induced Ca2+ rise in growth cones ([4]; Xenopus spinal neurons, Fluo-4, netrin-1 5 ng/ml, GPI-1046 100 nM in bath) | inhibition of FKBP isomerase activity [5] | commissural interneuron axon midline guidance ([6]; 0.5 μM applied to Xenopus embryos between stage 22-25) | inhibition of calcineurin [7] | netrin-1-induced Ca2+ rise in growth cones ([4]; neurons from embryos injected with morpholino (10 ng/embryo)) | commissural interneuron axon midline guidance ([6]; morpholino injected at the one-cell stage, stage 25 embryos)
CCC(C)(C)C(=O)C(=O)N1CCC[C@H]1C(=O)OCCCc1cccnc1 [GPI-1046, 3-(3-pyridyl)-1-propyl (2S)-1-(3,3-dimethyl-1,2-dioxopentyl)-2-pyrrolidinecarboxylate] | increased TRPC1 binding to GST-Homer | significant repulsive turning responses | no bias in the direction of growth cone extension | blocked netrin-1-induced attraction | abolished MAG-induced repulsion | abolished netrin-1-induced Ca^2+ rise | inhibits their isomerase activity | significant guidance defects | does not inhibit calcineurin | – | –
XDCC-MO: morpholino oligo directed against Xenopus DCC, 5′ CCAAGACAATTCTCCATATTTCAGC 3′ (all phosphorodiamidate morpholino (PMO)) | – | – | – | – | – | – | – | – | – | abolished netrin-1-induced Ca^2+ rise | failed to reach the midline
